Laboratory results as given in patent publication US10154974B1, “Use of abscisic acid for the prevention and treatment of malaria” (The Regents of the University of California, priority 2015, dated 2018).

What was measured:
human macrophages = details: in vitro; cited from earlier work
[1] = Daily monitoring of water consumption, body weight and condition of mice; type: in vivo; details: infected CD1 mice
Procedure: 6-8 week old female CD1 mice (Jackson) were housed four to a cage and provided with unsupplemented water or water supplemented with 2.56 mM (±)-abscisic acid (CAS Registry Number 14375-45-2) obtained from Sigma-Aldrich (Catalog No. A1049). Water and supplemented water were changed daily. On day 3 of supplementation, mice were injected intraperitoneally with 5×10^6 P. yoelii 17XNL-infected RBCs. Mouse weight, water consumption per cage, and parasitemia were monitored daily. Parasitemia was determined from thin blood films stained with Giemsa. Parasitemia was measured as the percentage of infected RBCs divided by total RBCs, while gametocytemia was measured as the proportion of gametocyte-containing RBCs of total infected RBCs. Four mice were used per group in replicated studies. Daily parasitemias and gametocytemias were analyzed by unpaired t-test.

P. falciparum = P. falciparum infection of A. stephensi fed a supplemented infected bloodmeal; type: in vivo; details: for reduction of infection prevalence in A. stephensi: relative to control
Procedure: For P. falciparum infections A. stephensi were fed on a 1:1 ratio of P. falciparum-infected RBCs containing a treatment or diluent control and provided in a Hemotek Insect Feeding System (Discovery Workshops). ABA was eluted in 100% ethanol and stored at −20 C for up to 6 months. ABA stock was diluted with PBS and added into blood immediately before feeding for final concentrations of 10 nM and 100 nM. For L-NAME feeds mosquitoes were maintained on sugar cubes and water pads containing 1 mg/mL L-NAME for 72 hours before the feed and throughout the course of infection. Infection prevalence data were analyzed by Fisher's Exact Test. Oocyst intensities were analyzed by Mann-Whitney test.

Complete blood counts = type: in vivo, mice
Procedure: (§1) FIG. 19A-C through FIG. 28A-B and Tables 6-1 through 6-4 support the use of ABA for treating Plasmodium-infected mammalian subjects. In the following tables, 4-5 mice were used per treatment, and data were analyzed by unpaired t-test. […] Abbreviations for Tables 6-3 and 6-4 are as follows: WBC=white blood cells, RBCs=red blood cells, MCV=mean corpuscular volume, MCH=mean corpuscular hemoglobin, MCHC=mean corpuscular hemoglobin concentration, RDW=red blood cell distribution width, MPV=mean platelet volume.

[2] = Small animal chemistry panel of plasma; type: in vivo, mice
Procedure: as §1

spleen = experiment: Spleen histology scoring; type: in vivo; details: P. yoelii-infected mice
Procedure: Mice were euthanized on day 7 post-infection. Blood was collected by heart puncture, spun at 8,000 rpm for 8 minutes and the plasma collected for ABA quantification. Livers and spleens were collected, retained in 10% formalin for 24 hours and then stored in 70% ethanol before sectioning and staining with hematoxylin and eosin. Liver sections were blindly scored on a scale from 0 to 3 for pigment levels, Kupffer cell density, portal tract inflammation, hemozoin deposition, extramedullary hematopoiesis, sinusoidal leukocyte density, sinusoidal adherence of leukocytes, and presence of microabscesses. Spleen sections were blindly scored on a scale from 0 to 3 for hyperplasia, extramedullary hematopoiesis, pigment, and levels of histiocytes and neutrophils. Pathology scores of control and treated mice were analyzed by unpaired t-test.

APL1 = APL1 expression in mosquito midgut; type: in vivo, Anopheles stephensi; details: 100 nM ABA, 4 and 8 hours post-feeding
Procedure: For mosquito immune gene expression, 20 midguts were dissected from mosquitoes in each treatment group at 1, 2, 4, 6, 8 and 24 hours post-feeding. Midguts were sonicated and stored in Trizol at −20° C. for up to a week before RNA was extracted according to manufacturer's instructions. cDNA synthesis was carried out using QantiTect Reverse Transcription Kit (Qiagen) and 200 ng of cDNA used per reaction for qRT-PCR with Sybr Green (Applied Biosystems). Fold changes in expression levels were calculated using the comparative threshold cycle method. Data were normalized to the housekeeping gene ribosomal protein S7 and to the control treatment. Primers and cycling conditions for AsNOS, defensin, LRIM, TEP1, and APL1 were as previously described (Hauck E S, et al. Microbes Infect. 2013; 15:775-87). […] Samples were analyzed in triplicate with 250 ng of cDNA per reaction to confirm uniformity of amplification. […] All expression data were analyzed by one sample t-test.
Transcript levels of a panel of immune genes previously described to play a role in the mosquito immune response to malaria parasites were examined. […] Mosquitoes were provided with a P. falciparum-infected bloodmeal supplemented with 100 nM ABA or with an equivalent volume of diluent as control, then analyzed at 1-24 hours post feeding.

[3] = P. yoelii infection, day 11 post-infection
[4] = uninfected and P. yoelii-infected mice
[5] = uninfected and infected mice, day 11 post-infection

For CC1=CC(=O)CC(C)(C)[C@@]1(O)/C=C/C(C)=C\C(=O)O (racemic) [ABA, (2Z,4E)-5-[(1S)-1-hydroxy-2,6,6-trimethyl-4-oxocyclohex-2-en-1-yl]-3-methylpenta-2,4-dienoic acid], the “activation of human macrophages” value (human macrophages) is listed as “activate”, the lethargy at necropsy ([1]; day 7, compared to controls) is listed as “less lethargic” and the daily weight change ([1]; over the course of infection) is listed as “not different”. For the same compound, the “reduction of infection prevalence in A. stephensi” value (P. falciparum; 10 nM ABA in bloodmeal) was 30%, the “mean oocysts per midgut” value (P. falciparum; 10 nM ABA, among infected mosquitoes (controls 2.1)) was 1.6 and the “reduction of infection prevalence in A. stephensi” value (P. falciparum; 100 nM ABA in bloodmeal) was 36%. For the same compound, the “percentage of basophils in whole blood” value (Complete blood counts; [3]) was “partially rescues decrease”, the “percentage of eosinophils in whole blood” value (Complete blood counts; [3]) was “partially rescues decrease” and the “% RDW, Mean” value (Complete blood counts; P. yoelii-infected mice) was 34.95%. For the same compound, the “% hematocrit, Mean” value (Complete blood counts; P. yoelii-infected mice) was 21.00%, the “% lymphocytes, Mean” value (Complete blood counts; P. yoelii-infected mice) was 69.22% and the “% monocytes, Mean” value (Complete blood counts; P. yoelii-infected mice) was 5.31%. For the same compound, the “% neutrophils, Mean” value (Complete blood counts; P. yoelii-infected mice) was 22.8%, the “MCHC, Mean” value (Complete blood counts; P. yoelii-infected mice) was 34.73 g/dL and the “MCV, Mean” value (Complete blood counts; P. yoelii-infected mice) was 55.20 fL. The “MPV, Mean” value (Complete blood counts; P. yoelii-infected mice) was 6.23 fL, the “RBCs, Mean” value (Complete blood counts; P. yoelii-infected mice) was 3.83 M/ul and the “WBC, Mean” value (Complete blood counts; P. yoelii-infected mice) was 31.90 K/uL. The “hemoglobin, Mean” value (Complete blood counts; P. yoelii-infected mice) was 7.28 g/dL, the “platelets, Mean” value (Complete blood counts; P. yoelii-infected mice) was 234.3 K/ul and the complete blood counts (Complete blood counts; [4]) was “no effect”. The “% RDW, Mean” value (Complete blood counts; uninfected mice) was 17.02%, the “% hematocrit, Mean” value (Complete blood counts; uninfected mice) was 38.48% and the “% lymphocytes, Mean” value (Complete blood counts; uninfected mice) was 66.56%. The “% monocytes, Mean” value (Complete blood counts; uninfected mice) was 11.71%, the “% neutrophils, Mean” value (Complete blood counts; uninfected mice) was 17.53% and the “MCHC, Mean” value (Complete blood counts; uninfected mice) was 32.72 g/dL. For the same compound, the “MCV, Mean” value (Complete blood counts; uninfected mice) was 43.14 fL, the “MPV, Mean” value (Complete blood counts; uninfected mice) was 5.74 fL and the “RBCs, Mean” value (Complete blood counts; uninfected mice) was 8.94 M/ul. For the same compound, the “WBC, Mean” value (Complete blood counts; uninfected mice) was 5.73 K/uL, the “hemoglobin, Mean” value (Complete blood counts; uninfected mice) was 12.56 g/dL and the “platelets, Mean” value (Complete blood counts; uninfected mice) was 573.0 K/ul. The “alanine transaminase, Mean” value ([2]; P. yoelii-infected mice) was 30.23 U/L, the “albumin, Mean” value ([2]; P. yoelii-infected mice) was 2.25 g/dL and the “aspartate transaminase, Mean” value ([2]; P. yoelii-infected mice) was 194.7 U/L. For the same compound, the “creatine, Mean” value ([2]; P. yoelii-infected mice) was 0.18 mg/dL, the “phosphorus, Mean” value ([2]; P. yoelii-infected mice) was 8.43 mg/dL and the “total bilirubin, Mean” value ([2]; P. yoelii-infected mice) was 0.26 mg/dL. For the same compound, the “total protein, Mean” value ([2]; P. yoelii-infected mice) was 4.12 g/dL, the “liver function (blood urea nitrogen levels in plasma)” value ([2]; day 11 post-infection) was “improved” and the “plasma indicators of organ health” value [2, 4] was “no effect”. For the same compound, the “glucose levels in mouse plasma” value [2, 5] was “does not alter”, the “insulin levels in mouse plasma” value [2, 5] was “does not alter” and the “alanine transaminase, Mean” value ([2]; uninfected mice) was 176.8 U/L. The “albumin, Mean” value ([2]; uninfected mice) was 3.23 g/dL, the “aspartate transaminase, Mean” value ([2]; uninfected mice) was 1437 U/L and the “blood urea nitrogen, Mean” value ([2]; uninfected mice) was 28.76 mg/dL. For the same compound, the “creatine, Mean” value ([2]; uninfected mice) was 0.21 mg/dL, the “phosphorus, Mean” value ([2]; uninfected mice) was 10.07 mg/dL and the “total bilirubin, Mean” value ([2]; uninfected mice) was 0.06 mg/dL. The “total protein, Mean” value ([2]; uninfected mice) was 4.67 g/dL, the “histiocyte density, pigment deposition, extramedullary hematopoiesis in the spleen” value (spleen) was “not altered” and the “lymphoid hyperplasia of the spleen” value (spleen) was “reduced”. The APL1 expression (APL1) was “increased”.
